From patent publication US8506930B2, “Compounds having affinity for amyloid” (Nihon Medi-Physics Co., Ltd., priority 2006, dated 2013)

Legend:
[1] = Transferability into brain and clearance, Examples II-10 to II-11; type: in vivo, male Wistar rats; details: rats, intravenous injection, Table 2-5
Protocol: 0.05 mL each of the prepared sample solutions was injected under thiopental anesthesia into the tail vein of the rats. The rats were sacrificed by bleeding from abdominal artery, and brains were removed and subjected to measurement of mass of brains and further subjected to measurement of radioactivity (hereinafter referred to as A in this Example) with a single channel analyzer (detector type SP-20 manufactured by OHYO KOKEN KOGYO Co., Ltd.) 2, 5, 30, and 60 minutes after the injection. Further, the radioactivity level of the rest of the whole body was measured in the same manner as above (hereinafter referred to as B in this Example). Using these measurement results, radioactive distribution per unit weight of brain (% ID/g) at the respective time points were calculated in accordance with the following formula (2-3).
(§1) Three animals were used for the experiment at the respective time points.

[2] = Partition coefficient based on the octanol extraction method, Example I-29; type: physicochemical; details: octanol / 10 mmol/L phosphate buffer (pH 7.4); Table I-9
Protocol: To 2 mL of octanol, 10 μL each of the prepared sample solutions was added, and 2 mL of a 10 mmol/L phosphate buffer (pH 7.4) was further added, followed by stirring for 30 seconds.

[3] = Transferability into brain and clearance (2), Example I-30; type: in vivo, male Wistar rats; details: rats, intravenous injection, Table 1-10
Protocol: 0.05 mL each of these solutions was injected under thiopental anesthesia into the tail vein of respective Wistar rats (7-week old). The rats were sacrificed by bleeding from abdominal artery, and brains were removed and subjected to measurement of mass of brains and further subjected to measurement of radioactivity (hereinafter referred to as A in this Example) with a single channel analyzer (detector type: SP-20 manufactured by OHYO KOKEN KOGYO Co., Ltd.) 2, 5, 30 and 60 minutes after the injection. Also, radioactivity (hereinafter referred to as B in this Example) of the rest of the whole body was measured in the same manner as above. Using these measurement results, radioactive distribution per unit weight of brain (% ID/g) at the respective time points were calculated in accordance with the following formula (1-7).
Three animals were used for experiment at the respective time points.

[4] = Transferability into brain and clearance, Examples II-22 to II-23; type: in vivo, male Wistar rats; details: rats, intravenous injection, Table 2-7
Protocol: 0.05 mL each of the prepared sample solutions was injected under thiopental anesthesia into the tail vein of the respective Wistar rat (7-week old). The rats were sacrificed by bleeding from abdominal artery, and brains were removed and subjected to measurement of mass of brains and further subjected to measurement of radioactivity (hereinafter referred to as A in this Example) with a single channel analyzer (detector type SP-20 manufactured by OHYO KOKEN KOGYO Co., Ltd.) 2, 5, 30, and 60 minutes after the injection. Further, the radioactivity level of the rest of the whole body was measured in the same manner as above (hereinafter referred to as B in this Example). Using these measurement results, radioactive distribution per unit weight of brain (% ID/g) at the respective time points were calculated in accordance with the following formula (2-5).
as §1

[5] = Partition coefficient based on the octanol extraction method, Examples I-13 to I-14; type: physicochemical; details: octanol / 10 mmol/L phosphate buffer (pH 7.4); Table 1-4
Protocol: After the mixture was centrifuged with a low-speed centrifuge (2000 rpm×60 min.), the octanol layer and the water layer were sampled each in an amount of 1 mL, and subjected to measurement of radioactivity count with an autowell gamma system (manufactured by Aloka, Type: ARC-301B). Using the obtained radioactivity count, log Poctanol was calculated in accordance with the equation (1-2).

[6] = biological target: T1, intracerebral amyloid (aggregated Aβ1-40 injected into amygdaloid nucleus) (Homo sapiens, UniProt P05067); assay: Ex vivo autoradiogram of 123I-IMPY using rats of amyloid injected model, Comparative Example II-6; type: in vivo, male Wistar rat; details: brain slice 60 minutes after tail vein injection
T1 construct: Aβ1-40 (Peptide Institute, INC.) was dissolved in phosphate buffer (pH 7.4); purchased Peptide Institute, INC
Protocol: (§2) (1) Aβ1-40 (manufactured by Peptide Institute, INC.) was dissolved in phosphate buffer (pH 7.4) and shaken at 37° C. for 72 hours, to obtain 1 mg/mL of a suspension of aggregated Aβ (hereinafter referred to as amyloid suspension in this Example).
(§3) (2) 2.5 μL (corresponding to 25 μg) of the amyloid suspension was injected into an amygdaloid nucleus on one side of a male Wistar rat (7-week old). As a control, 2.5 μL of a phosphate buffered physiological saline solution (pH 7.4) was injected into an amygdaloid nucleus on the other side of the rat. The rats were examined 1 day after the injection of the amyloid suspension and the phosphate buffered physiological saline solution (pH 7.4).
(§4) This solution was injected under thiopental anesthesia into the rat through the tail vein (dosage: 0.5 mL, dosed radioactivity: 14.5 MBq equivalent).
(§5) (4) Brain was removed 60 minutes after the injection to prepare a brain slice of 10 μm in thickness with a microtome (type: CM3050S, manufactured by LEICA). The brain slice was exposed to an imaging plate for 20 hours, and then image analysis was carried out by use of a Bio-imaging Analyzer (type: BAS-2500; manufactured by FUJIFILM Corporation).

[7] = tested on: intracerebral amyloid (aggregated Aβ1-40 injected into amygdaloid nucleus); assay: as above; type: in vivo, male Wistar rat; details: autoradiogram, 60 minutes after tail vein injection
Protocol: as §2, §3, §4, §5

[8] = Partition coefficient based on the octanol extraction method, Examples II-8 to II-9; type: physicochemical; details: octanol / 10 mmol/L phosphate buffer (pH 7.4); Table 2-4
Protocol: To 2 mL of octanol, 10 μL each of the prepared sample solutions was added, 2 mL of 10 mmol/L phosphate buffer (pH 7.4) was added, followed by stirring for 30 seconds. After the mixture was centrifuged with a low-speed centrifuge (2000 rpm×60 min.), the octanol layer and the water layer were sampled each in an amount of 1 mL, and subjected to measurement of radioactivity count with an autowell gamma system (Type: ARC-301B, manufactured by Aloka). Using the obtained radioactivity count, log Poctanol was calculated in accordance with the equation (2-2).

[9] = Partition coefficient based on the octanol extraction method, Examples II-20 to II-21; type: physicochemical; details: octanol / 10 mmol/L phosphate buffer (pH 7.4); Table 2-6
Protocol: To 2 mL of octanol, 10 μL each of the prepared sample solution was added, and 2 mL of 10 mmol/L phosphate buffer (pH 7.4) was further added, followed by stirring for 30 seconds. After the mixture was centrifuged with a low-speed centrifuge (2000 rpm×60 min.), the octanol layer and the water layer were sampled each in an amount of 1 mL, and subjected to measurement of radioactivity count with an autowell gamma system (Type: ARC-301B, manufactured by Aloka). Using the obtained radioactivity count, log Poctanol was calculated in accordance with the equation (2-4).

[10] = Transferability into brain and clearance, Examples I-20 to I-21; type: in vivo, male Wistar rats; details: rats, intravenous injection, Table 1-7
Description: Three animals were used for Experiment I-20 and Comparative Experiment I-9, and two animals were used for Experiment I-21 at the respective time points.

[11] = International Publication WO03/106439 pamphlet; cited from earlier work
[12] = Partition coefficient based on HPLC; type: physicochemical; details: 50 mM triethylamine phosphate (pH 7.2)/acetonitrile=40/60; log PHPLC=0.96(log10K′HPLC)+1.59
Protocol: The partition coefficient by HPLC (hereinafter referred to as log PHPLC) was measured by the following method.
First, compounds for evaluation shown in Table 1-5 were dissolved at a concentration of 1 mg/mL in methanol containing 10% dimethylsulfoxide to prepare sample solutions. One μL of the sample solution was subjected to HPLC analysis under the following conditions to determine the elution time (t0) of the solvent and the elution time (tR) of each compound. […]
Using the obtained t0 and tR, the retention factor (hereinafter referred to as K′HPLC value) of each compound for evaluation was determined according to the following calculation formula (1-3). […]
After the individual solutions were stirred for 30 seconds, the solutions were centrifuged at 2,000 rpm for 60 minutes. 1 mL each of the octanol phase and the water phase was fractionated, and the radioactivity was measured by an autowell gamma system (manufactured by Aloka Co., Ltd.: Type ARC-301B). Based on the obtained radioactivity, log Poctanol values were calculated according to the above equation (1-2). […]
Using K′HPLC obtained for each compound for evaluation, the log PHPLC value of each compound for evaluation was determined according to the above calculation formula (1-4).

T1 sequence (P05067 672-711): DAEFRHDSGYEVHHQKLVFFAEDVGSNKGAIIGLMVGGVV

With `CN(C)c1ccc(-c2cn3cc([123I])ccc3n2)cc1` [[^123I]-IMPY, reference compound] the “Radioactive distribution in brain per unit weight, After 2 min.” value ([1]; 2 min.) was 1.19 % ID/g, the “Radioactive distribution in brain per unit weight, After 5 min.” value ([1]; 5 min.) was 0.97 % ID/g and the “Radioactive distribution in brain per unit weight, After 30 min.” value ([1]; 30 min.) was 0.23 % ID/g. For the same compound, the “Radioactive distribution in brain per unit weight, After 60 min.” value ([1]; 60 min.) was 0.09 % ID/g, the logPoctanol value [2] was 2.1 and the “Radioactive distribution in brain per unit weight, After 2 min.” value ([3]; 2 min.) was 1.19 % ID/g. For the same compound, the “Radioactive distribution in brain per unit weight, After 5 min.” value ([3]; 5 min.) was 0.97 % ID/g, the “Radioactive distribution in brain per unit weight, After 30 min.” value ([3]; 30 min.) was 0.23 % ID/g and the “Radioactive distribution in brain per unit weight, After 60 min.” value ([3]; 60 min.) was 0.09 % ID/g. For the same compound, the “Radioactive distribution in brain per unit weight, After 2 min.” value ([4]; 2 min.) was 1.19 % ID/g, the “Radioactive distribution in brain per unit weight, After 5 min.” value ([4]; 5 min.) was 0.97 % ID/g and the “Radioactive distribution in brain per unit weight, After 30 min.” value ([4]; 30 min.) was 0.23 % ID/g. For the same compound, the “Radioactive distribution in brain per unit weight, After 60 min.” value ([4]; 60 min.) was 0.09 % ID/g, the logPoctanol value [5] was 2.1 and the “accumulation of radioactivity in amygdaloid nucleus on the side to which the amyloid suspension was injected” value [6] was “marked accumulation of radioactivity”. For the same compound, the “accumulation of radioactivity where amyloid was not injected (white matter)” value [7] was “non-specific accumulation was observed in white matter”, the logPoctanol value [8] was 1.9 and the logPoctanol value [9] was 2.1. For the same compound, the “Radioactive distribution in brain per unit weight, After 2 min.” value ([10]; 2 min.) was 1.02 % ID/g, the “Radioactive distribution in brain per unit weight, After 5 min.” value ([10]; 5 min.) was 0.99 % ID/g and the “Radioactive distribution in brain per unit weight, After 30 min.” value ([10]; 30 min.) was 0.20 % ID/g. The “Radioactive distribution in brain per unit weight, After 60 min.” value ([10]; 60 min.) was 0.08 % ID/g.
In the case of `CN(C)c1ccc(-c2cn3cc(I)ccc3n2)cc1` [IMPY, 6-iodo-2-[4′-(N,N-dimethylamino)phenyl]imidazo[1,2-a]pyridine], the “reverse mutation test result” value [11] is given as “positive” and the logPHPLC value [12] is given as 2.1.
